Results taken from patent US5084463A, “N-quinolinyl alkyl-substituted 1-aryloxy-2-propanolamine and propylamine derivatives possessing class III antiarrhythmic activity” (American Home Products Corporation, priority 1990, dated 1992).

Tests used:
[1] = dextro enantiomer; Taggart et al. 1985, McComb et al. 1985; cited from earlier work
Dog = test: Ventricular fibrillation threshold in dog; type: in vivo, mongrel dog; settings: 5 mg/kg i.v.
Description: VENTRICULAR FIBRILLATION THRESHOLD
Mongrel dogs of both sexes weighing 12 to 18 kg were anesthetized with sodium pentobarbital (35 mg/kg i.v. supplemented with 5 mg/kg/h) and artificially ventilated with room air (minute volume: 200 mL/kg).
A right thoracotomy was performed at the fifth intercostal space and the heart suspended in a pericardial cradle. Bipolar electrodes for stimulation were sutured to the free wall of the right atrium and to the right ventricle.
The dog heart was paced by a stimulus for driving a constant current isolation unit.
Ventricular fibrillation threshold (VFT) was determined during atrial pacing at […]. Trains of 4-msec duration square-wave pulses (50 Hz, 200-msec duration) were delivered to the right ventricle via the epicardial bipolar electrode (silver contacts 1 mm in diameter and 5 mm apart embedded in acrylic matrix). Trains of pulses were delivered every 12th paced beat and were timed to terminate with the end of the T wave of the ECG. Current intensity was increased progressively until ventricular fibrillation (VF) occurred. The lowest current intensity producing VF was defined as the ventricular fibrillation threshold (VFT). […] VFT was measured twice before drug administration to establish a stable pre-drug threshold. […]

Purkinje Fiber = test: Cardiac electrophysiology in vitro: action potential parameters of dog Purkinje fibers; type: cell-based; settings: 3 μM, BCL = 300
Description: Bundles of free-running Purkinje fibers with attached myocardium obtained from either ventricle of adult dog heart were pinned without stretching to the bottom of a 10 mL tissue chamber and continuously superfused with oxygenated Tyrode's solution at a flow rate of 5 mL/minute. The composition of the Tyrode's solution was (mM): NaCl, 138; KCl 4; CaCl2, 2; MgCl2, 0.5; NaHCO3, 24; dextrose, 5.5. The solution was aerated with 95% O2 --5% CO2 at 37° C. Bath temperature was maintained at 37°±0.5° C. by circulating the pre-warmed superfusate through a thermostatically controlled water bath immediately prior to entering the tissue chamber. […] The first derivative of the action potential upstroke (Vmax) was obtained using an analog differentiator circuit, coupled to a peak-hold circuit that retained the recorded value of Vmax for 30 to 70-msec. […] Action potential (AP) parameters measured included: diastolic take-off potential (or activation voltage, V(act); AP overshoot (Vos); AP duration measured as the time taken to repolarize to -20 mV (APD-20), -60 mV (APD-60), and -80 mV (APD-80); and maximal upstroke velocity (Vmax). An increase in APD-60 that occurred without a significant change in Vmax was taken, by definition, to indicate Class III antiarrhythmic activity "in vitro".

SMILES: CC(C)NCC(O)c1ccc(NS(C)(=O)=O)cc1 (stereo not shown) [Sotalol, 4-(2-isopropylamino-1-hydroxyethyl)-methanesulfonamide]
- selective Class III antiarrhythmic activity [1]: selective Class III antiarrhythmic activity

SMILES: CN(Cc1ccc2ccccc2n1)CC(O)COc1ccc(NS(C)(=O)=O)cc1 (stereo not shown) [Example 4, N-[4-[2-Hydroxy-3-[methyl(2-quinolinylmethyl)amino]propoxy]phenyl]methanesulfonamide]
- Ventricular fibrillation threshold (current threshold necessary to induce fibrillation) (Dog; n = 6, x + S.E., pre-drug vehicle 8 + 2): 25 + 7 mA
- animals defibrillated spontaneously (Dog; of 6 animals): 2 animals

SMILES: CN(Cc1ccc2ccccc2n1)CC(O)COc1ccc([N+](=O)[O-])cc1.Cl.Cl (stereo not shown) [Example 3, 1-[Methyl(2-quinolinylmethyl)amino]-3-(4-nitrophenoxy)-2-propanol Dihydrochloride]
- APD-60 (Purkinje Fiber): did not pace
